From ChEMBL document CHEMBL1201862, “PubChem BioAssay data set” (2004)
Active and inactive are the calls of the source.

Tests used:
Genome polyprotein = Genome polyprotein (dengue virus type 2, UniProt P29990); test: Dengue-2 NS5 methyltransferase inhibitors, primary screen, biochemical, confirmation dose response (AID 588689); assay type: functional
[1] = target: T1, Tyrosyl-DNA phosphodiesterase 2 (Homo sapiens, UniProt O95551); test: human TDP2 enzyme inhibitors, dose response, biochemical, epi absorbance, IC50 (AID 743297)
T1 sequence (O95551 whole entry): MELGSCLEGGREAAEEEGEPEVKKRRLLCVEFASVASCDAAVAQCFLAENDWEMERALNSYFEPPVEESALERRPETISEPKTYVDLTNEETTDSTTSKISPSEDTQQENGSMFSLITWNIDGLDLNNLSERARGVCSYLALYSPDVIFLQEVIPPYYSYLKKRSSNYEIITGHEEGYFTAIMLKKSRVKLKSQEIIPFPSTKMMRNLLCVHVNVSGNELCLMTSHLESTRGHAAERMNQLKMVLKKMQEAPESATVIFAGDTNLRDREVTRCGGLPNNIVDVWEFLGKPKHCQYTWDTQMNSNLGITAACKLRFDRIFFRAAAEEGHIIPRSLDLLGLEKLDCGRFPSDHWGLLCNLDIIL

Vero = Vero cell cytotoxicity, cytotoxicity control for flavivirus capping enzyme inhibitors (AID 588742); assay type: functional; conditions: Chlorocebus sabaeus
Hexokinase HKDC1 = target: T2, Hexokinase HKDC1 (Homo sapiens, UniProt Q2TB90); test: HKDC1 hexokinase inhibitors, dose response, biochemical, W721R variant (AID 504729); assay type: functional
T2 sequence (Q2TB90 whole entry): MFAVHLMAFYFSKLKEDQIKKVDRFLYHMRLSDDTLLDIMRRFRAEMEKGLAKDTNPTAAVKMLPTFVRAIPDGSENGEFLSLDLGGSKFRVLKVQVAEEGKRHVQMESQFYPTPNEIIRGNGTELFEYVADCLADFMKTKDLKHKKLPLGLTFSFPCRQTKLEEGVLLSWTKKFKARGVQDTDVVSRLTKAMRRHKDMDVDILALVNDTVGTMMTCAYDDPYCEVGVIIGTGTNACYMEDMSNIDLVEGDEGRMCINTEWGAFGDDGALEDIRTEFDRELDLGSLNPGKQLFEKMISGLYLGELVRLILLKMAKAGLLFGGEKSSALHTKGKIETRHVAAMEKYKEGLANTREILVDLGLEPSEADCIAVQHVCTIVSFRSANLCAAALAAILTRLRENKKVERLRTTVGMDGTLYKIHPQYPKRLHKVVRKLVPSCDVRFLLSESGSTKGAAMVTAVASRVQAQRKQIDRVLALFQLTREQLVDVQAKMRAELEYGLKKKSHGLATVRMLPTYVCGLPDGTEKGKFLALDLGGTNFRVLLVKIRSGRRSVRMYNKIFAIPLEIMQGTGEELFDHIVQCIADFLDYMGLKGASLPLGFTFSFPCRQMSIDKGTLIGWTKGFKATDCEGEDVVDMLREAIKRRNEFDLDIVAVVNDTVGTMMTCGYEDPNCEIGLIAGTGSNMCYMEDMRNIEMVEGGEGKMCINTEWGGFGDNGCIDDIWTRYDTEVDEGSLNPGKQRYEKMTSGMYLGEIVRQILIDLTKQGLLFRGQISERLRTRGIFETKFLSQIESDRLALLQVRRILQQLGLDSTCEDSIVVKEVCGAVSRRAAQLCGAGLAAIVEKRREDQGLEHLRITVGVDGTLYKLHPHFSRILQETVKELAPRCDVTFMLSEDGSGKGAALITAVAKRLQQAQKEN

[2] = target: Adenosylmethionine-8-amino-7-oxononanoate aminotransferase (Mycobacterium tuberculosis, UniProt P9WQ81); test: Mycobacterium tuberculosis BioA enzyme inhibitor Measured in Biochemical System Using Plate Reader - 2163-02_Inhibitor_Dose_CherryPick_Activity.; assay type: functional, Mycobacterium tuberculosis UT205
Adenosylmethionine-8-amino-7-oxononanoate aminotransferase, sequence (P9WQ81 whole entry): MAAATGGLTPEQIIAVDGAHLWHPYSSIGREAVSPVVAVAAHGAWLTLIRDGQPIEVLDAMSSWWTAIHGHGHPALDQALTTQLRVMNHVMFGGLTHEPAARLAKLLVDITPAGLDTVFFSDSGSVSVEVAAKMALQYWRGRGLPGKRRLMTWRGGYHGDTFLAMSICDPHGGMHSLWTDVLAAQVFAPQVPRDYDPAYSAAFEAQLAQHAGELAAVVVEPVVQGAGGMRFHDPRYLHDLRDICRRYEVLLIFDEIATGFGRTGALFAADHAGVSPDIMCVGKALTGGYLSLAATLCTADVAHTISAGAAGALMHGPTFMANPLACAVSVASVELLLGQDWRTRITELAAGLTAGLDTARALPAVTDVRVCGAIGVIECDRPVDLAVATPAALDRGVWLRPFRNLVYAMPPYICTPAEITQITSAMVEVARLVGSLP

[3] = target: Tyrosine-protein phosphatase non-receptor type 11 (Homo sapiens, UniProt Q06124); test: SHP2 phosphatase inhibition, dose response, selectivity assay for STEP inhibitor project, biochemical (AID 602367); assay type: functional; conditions: read-out: IC50_Mean
Tyrosine-protein phosphatase non-receptor type 11, sequence (Q06124 whole entry): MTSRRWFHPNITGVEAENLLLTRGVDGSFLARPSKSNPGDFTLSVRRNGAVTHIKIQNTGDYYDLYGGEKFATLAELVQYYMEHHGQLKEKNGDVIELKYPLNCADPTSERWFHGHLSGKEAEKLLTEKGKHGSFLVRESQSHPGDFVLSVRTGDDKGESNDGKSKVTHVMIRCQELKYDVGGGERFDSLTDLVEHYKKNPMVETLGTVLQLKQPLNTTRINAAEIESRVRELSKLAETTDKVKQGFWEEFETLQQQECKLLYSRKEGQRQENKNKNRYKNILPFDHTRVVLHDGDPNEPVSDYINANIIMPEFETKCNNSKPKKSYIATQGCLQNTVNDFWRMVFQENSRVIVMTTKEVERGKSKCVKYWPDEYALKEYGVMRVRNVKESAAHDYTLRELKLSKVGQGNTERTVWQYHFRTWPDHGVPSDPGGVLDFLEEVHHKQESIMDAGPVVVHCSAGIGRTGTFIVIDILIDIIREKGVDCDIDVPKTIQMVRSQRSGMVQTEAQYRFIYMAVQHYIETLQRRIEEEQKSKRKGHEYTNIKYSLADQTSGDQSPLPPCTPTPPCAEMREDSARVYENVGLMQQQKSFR

[4] = target: Dual specificity protein phosphatase 3 (Homo sapiens, UniProt P51452); test: VHR phosphatase inhibition, dose response, selectivity assay for STEP inhibitor project, biochemical (AID 602374); assay type: functional; conditions: read-out: IC50_Mean
Dual specificity protein phosphatase 3, sequence (P51452 whole entry): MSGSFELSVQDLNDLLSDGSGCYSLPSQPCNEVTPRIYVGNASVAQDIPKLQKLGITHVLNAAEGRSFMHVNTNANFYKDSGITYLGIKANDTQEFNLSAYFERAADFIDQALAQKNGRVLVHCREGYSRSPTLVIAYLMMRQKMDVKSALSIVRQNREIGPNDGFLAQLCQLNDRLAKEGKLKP

[5] = target: Tyrosine-protein phosphatase non-receptor type 5 (Homo sapiens, UniProt P54829); test: STEP phosphatase inhibitors, confirmation, biochemical, fluorescence intensity, uHTS hits (AID 602372); assay type: functional; conditions: read-out: IC50_Mean
Tyrosine-protein phosphatase non-receptor type 5, sequence (P54829 whole entry): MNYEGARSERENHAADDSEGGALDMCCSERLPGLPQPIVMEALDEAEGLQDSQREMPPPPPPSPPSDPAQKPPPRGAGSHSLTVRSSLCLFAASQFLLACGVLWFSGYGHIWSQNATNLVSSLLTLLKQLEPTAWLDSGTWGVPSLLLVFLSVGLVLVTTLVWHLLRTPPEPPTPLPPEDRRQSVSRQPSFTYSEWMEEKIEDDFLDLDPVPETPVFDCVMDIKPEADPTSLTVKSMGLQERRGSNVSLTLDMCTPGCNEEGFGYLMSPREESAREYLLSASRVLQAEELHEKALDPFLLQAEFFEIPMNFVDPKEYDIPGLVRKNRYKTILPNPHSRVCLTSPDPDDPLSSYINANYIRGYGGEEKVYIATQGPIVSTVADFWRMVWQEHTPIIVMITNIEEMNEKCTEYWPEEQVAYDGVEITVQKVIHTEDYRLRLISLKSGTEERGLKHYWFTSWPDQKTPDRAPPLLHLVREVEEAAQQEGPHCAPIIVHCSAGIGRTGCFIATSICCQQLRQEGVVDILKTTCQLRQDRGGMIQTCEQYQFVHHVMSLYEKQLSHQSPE

[6] = growth suppression of beta-catenin-knockout colon cells, dose response, cell-based, HCT116, human colon tumor (AID 1045); assay type: functional;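 note: HCT116 colon tumor cells with beta catenin knocked out; cells exposed to compound for 60 hours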
cells = assay type: functional
[7] = growth suppression of PTEN-null colon cells, dose response, cell-based, HCT116 PTEN knockout (AID 1047); assay type: functional;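 note: HCT116 colon tumor cells with PTEN knocked out; cells exposed to compound for 60 hours before readout; potency for loss of cell viability measured by luminescence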
[8] = Vero E6 cell cytotoxicity, dose response, cytotoxicity control for non-replicating M. tuberculosis project, secondary assay (AID 492998); assay type: functional, VeroE6; conditions: Vero C1008
Beta-galactosidase = Beta-galactosidase (Escherichia coli, UniProt Q8VNN2); test: PubChem AID 485352; assay type: functional
Beta-galactosidase, sequence (Q8VNN2 whole entry): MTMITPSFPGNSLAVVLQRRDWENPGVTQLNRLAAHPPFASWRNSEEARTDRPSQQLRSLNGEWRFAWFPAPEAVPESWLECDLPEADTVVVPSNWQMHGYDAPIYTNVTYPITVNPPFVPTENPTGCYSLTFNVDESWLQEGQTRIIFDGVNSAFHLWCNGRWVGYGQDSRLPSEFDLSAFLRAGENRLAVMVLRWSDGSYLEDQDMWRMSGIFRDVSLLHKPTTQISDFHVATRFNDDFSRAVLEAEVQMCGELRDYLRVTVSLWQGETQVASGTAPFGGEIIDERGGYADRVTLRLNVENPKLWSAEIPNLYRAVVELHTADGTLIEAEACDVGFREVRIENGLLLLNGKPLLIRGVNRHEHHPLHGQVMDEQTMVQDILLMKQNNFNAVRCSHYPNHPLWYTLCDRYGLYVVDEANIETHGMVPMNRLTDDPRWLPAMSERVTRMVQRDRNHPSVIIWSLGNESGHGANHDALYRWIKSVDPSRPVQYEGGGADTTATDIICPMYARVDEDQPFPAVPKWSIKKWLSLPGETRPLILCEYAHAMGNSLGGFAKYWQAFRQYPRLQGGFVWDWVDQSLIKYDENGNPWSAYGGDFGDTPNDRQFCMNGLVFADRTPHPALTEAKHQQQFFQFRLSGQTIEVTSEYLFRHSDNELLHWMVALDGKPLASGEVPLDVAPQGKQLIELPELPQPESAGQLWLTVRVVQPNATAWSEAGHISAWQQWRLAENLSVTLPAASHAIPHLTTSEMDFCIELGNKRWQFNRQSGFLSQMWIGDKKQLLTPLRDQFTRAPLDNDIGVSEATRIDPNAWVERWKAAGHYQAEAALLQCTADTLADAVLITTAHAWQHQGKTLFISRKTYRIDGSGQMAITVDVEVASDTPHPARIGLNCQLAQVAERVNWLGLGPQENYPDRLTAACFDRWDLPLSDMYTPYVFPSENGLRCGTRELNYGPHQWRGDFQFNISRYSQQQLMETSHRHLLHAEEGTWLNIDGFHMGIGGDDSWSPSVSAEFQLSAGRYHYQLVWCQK

[9] = THP-1 cell cytotoxicity, dose response, cytotoxicity control for non-replicating M. tuberculosis project (AID 489025); assay type: functional
[10] = target: T3, Type-1 angiotensin II receptor (Homo sapiens, UniProt P30556); test: AT1 receptor antagonists, dose response, selectivity assay for APJ receptor antagonist project, cell-based, uHTS hits (AID 463214); assay type: functional;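 note: antagonist potency against angiotensin II stimulated AT1 response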
T3 sequence (P30556 whole entry): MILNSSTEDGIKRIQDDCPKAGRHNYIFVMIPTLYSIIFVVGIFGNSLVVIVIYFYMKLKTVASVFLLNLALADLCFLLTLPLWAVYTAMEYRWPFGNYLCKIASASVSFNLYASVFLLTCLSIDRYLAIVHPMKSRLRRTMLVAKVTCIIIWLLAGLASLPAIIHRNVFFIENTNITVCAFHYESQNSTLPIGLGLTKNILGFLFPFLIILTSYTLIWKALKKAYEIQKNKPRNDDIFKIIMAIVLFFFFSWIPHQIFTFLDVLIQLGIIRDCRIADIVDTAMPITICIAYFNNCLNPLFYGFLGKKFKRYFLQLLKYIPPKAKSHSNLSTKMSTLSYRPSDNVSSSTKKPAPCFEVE

Phospholipase D2 = Phospholipase D2 (Homo sapiens, UniProt O14939); test: PLD2 inhibitor potency in cells, dose response (AID 602147); assay type: functional;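 note: cellular assay in HEK293 cells overexpressing GFP-tagged PLD2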
Phospholipase D2, sequence (O14939 whole entry): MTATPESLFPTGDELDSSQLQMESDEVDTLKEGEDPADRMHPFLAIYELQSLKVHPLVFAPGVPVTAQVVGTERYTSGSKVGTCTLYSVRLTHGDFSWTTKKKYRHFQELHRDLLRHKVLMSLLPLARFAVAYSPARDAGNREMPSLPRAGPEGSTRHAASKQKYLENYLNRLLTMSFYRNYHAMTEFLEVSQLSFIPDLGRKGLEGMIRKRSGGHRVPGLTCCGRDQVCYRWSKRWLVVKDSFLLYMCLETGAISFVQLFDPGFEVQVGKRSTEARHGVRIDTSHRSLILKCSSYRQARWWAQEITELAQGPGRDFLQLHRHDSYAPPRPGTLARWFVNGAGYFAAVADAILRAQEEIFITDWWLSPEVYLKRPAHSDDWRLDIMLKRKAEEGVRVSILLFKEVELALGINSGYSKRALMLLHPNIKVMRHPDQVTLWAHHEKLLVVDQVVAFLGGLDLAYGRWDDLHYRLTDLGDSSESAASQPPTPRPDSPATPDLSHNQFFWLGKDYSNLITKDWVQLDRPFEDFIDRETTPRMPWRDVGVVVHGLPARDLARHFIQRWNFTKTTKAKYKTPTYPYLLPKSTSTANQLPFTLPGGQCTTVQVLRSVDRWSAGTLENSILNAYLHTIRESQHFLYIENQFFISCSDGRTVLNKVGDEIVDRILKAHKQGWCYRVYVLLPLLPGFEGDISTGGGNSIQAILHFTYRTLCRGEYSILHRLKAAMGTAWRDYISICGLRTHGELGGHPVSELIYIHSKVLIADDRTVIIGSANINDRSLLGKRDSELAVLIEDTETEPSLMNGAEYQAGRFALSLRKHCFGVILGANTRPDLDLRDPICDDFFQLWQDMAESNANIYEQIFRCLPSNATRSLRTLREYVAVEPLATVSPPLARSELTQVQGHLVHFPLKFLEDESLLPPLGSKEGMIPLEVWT

Phospholipase D1 = target: T4, Phospholipase D1 (Homo sapiens, UniProt Q13393); test: PLD1 inhibitor potency in cells, dose response (AID 602151); assay type: functional;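 note: cellular PLD1 assay in Calu-1 cells stimulated with PMA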
T4 sequence (Q13393 whole entry): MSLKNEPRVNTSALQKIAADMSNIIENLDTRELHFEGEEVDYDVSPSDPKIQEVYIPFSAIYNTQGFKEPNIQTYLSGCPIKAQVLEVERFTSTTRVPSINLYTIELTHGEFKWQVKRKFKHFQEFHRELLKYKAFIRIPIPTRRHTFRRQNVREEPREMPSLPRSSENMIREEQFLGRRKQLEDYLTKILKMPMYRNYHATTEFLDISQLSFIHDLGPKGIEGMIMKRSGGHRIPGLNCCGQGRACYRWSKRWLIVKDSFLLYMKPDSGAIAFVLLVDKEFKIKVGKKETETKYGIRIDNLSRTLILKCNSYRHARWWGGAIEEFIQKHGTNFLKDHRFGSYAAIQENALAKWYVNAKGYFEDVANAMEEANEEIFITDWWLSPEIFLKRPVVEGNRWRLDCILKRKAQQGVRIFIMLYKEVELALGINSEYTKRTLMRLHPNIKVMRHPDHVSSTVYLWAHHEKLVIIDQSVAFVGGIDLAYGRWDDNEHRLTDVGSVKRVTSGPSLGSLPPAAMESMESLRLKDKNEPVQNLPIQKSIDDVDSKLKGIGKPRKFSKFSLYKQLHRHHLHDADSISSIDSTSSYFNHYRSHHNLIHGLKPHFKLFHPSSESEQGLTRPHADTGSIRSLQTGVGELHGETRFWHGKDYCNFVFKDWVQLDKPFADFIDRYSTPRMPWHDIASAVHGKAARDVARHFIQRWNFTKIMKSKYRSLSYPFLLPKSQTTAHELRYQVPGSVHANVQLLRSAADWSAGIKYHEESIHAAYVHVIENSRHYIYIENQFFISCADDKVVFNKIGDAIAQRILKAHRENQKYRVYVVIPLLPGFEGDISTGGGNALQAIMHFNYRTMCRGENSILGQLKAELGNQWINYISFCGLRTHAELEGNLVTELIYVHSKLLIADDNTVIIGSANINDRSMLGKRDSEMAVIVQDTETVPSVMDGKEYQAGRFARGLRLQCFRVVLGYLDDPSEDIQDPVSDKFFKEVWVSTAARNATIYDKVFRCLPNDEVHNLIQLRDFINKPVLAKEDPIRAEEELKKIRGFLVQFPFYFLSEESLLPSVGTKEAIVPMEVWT

[11] = AlphaScreen signal interference compounds, dose response, artefact control for ARNT-TACC3 interaction inhibitor project, biochemical, luminescence, cherry-pick (AID 651705); assay type: functional;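 note: AlphaScreen bead proximity signal that flags compounds interfering with the detection technology; potency reflects signal decrease which marks the compound as an assay artifact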
[12] = target: DNA (cytosine-5)-methyltransferase 1 (Homo sapiens, UniProt P26358); test: DNMT1 methyltransferase inhibitors, confirmation, biochemical, fluorescent molecular beacon (AID 602386); assay type: functional
[13] = target: T5, Rac GTPase-activating protein 1 (Homo sapiens, UniProt Q9H0H5); test: MgcRacGAP GTPase-activating activity inhibitors, confirmation, biochemical, ADP Hunter fluorescence, primary and confirmatory (AID 624330); assay type: functional
T5 sequence (Q9H0H5 whole entry): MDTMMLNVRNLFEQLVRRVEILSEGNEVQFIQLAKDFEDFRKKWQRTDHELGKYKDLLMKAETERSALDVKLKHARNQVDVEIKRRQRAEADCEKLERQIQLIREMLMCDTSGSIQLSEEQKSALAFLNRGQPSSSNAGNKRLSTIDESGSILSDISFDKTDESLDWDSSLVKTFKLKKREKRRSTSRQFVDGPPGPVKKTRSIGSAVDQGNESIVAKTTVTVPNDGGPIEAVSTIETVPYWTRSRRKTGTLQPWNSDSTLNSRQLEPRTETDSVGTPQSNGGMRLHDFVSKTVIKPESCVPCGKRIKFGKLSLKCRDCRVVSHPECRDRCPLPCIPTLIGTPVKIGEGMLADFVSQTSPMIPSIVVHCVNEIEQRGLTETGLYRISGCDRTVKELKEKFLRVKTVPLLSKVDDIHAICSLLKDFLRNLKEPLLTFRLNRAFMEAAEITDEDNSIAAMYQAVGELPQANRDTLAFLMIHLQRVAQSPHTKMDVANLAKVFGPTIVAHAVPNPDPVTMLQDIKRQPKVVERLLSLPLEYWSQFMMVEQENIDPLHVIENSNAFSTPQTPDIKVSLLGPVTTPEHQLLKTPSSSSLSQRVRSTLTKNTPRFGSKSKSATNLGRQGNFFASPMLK

[14] = THP-1 cell cytotoxicity, dose response, cytotoxicity control for Vif-APOBEC3G degradation inhibitor project, THP-1 cells (AID 1117359); assay type: functional; conditions: Human immunodeficiency virus 1, THP-1
[15] = system: Streptococcus sp. 'group A'; test: growth inhibition of control SK(-) GAS strain, dose response, counter-screen for streptokinase expression inhibitor project, luminescence, kanamycin, BacTiterGlo, confirmation (AID 1900); assay type: functional, organism-based
INS1 = test: beta cell apoptosis inhibitors, cytokine rescue, dose response, luminescence, retest (AID 449756); assay type: functional, cell-based; conditions: Rattus norvegicus;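 note: cell death triggered by IL-1 beta plus TNF-alpha plus IFN-gamma mixture; protective hits raise ATP signal compared with cytokine alone wells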
Streptococcus = test: Group A Streptococcus viability loss, dose response, counter-screen for streptokinase expression inhibitor project, luminescence, BacTiterGlo (AID 1915); assay type: functional, organism-based;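 note: potency for reduction of bacterial viability or growth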
[16] = ARNT/TACC3 interaction disruptors, potency, confirmation, biochemical, AlphaScreen, cherry-picked samples (AID 651703); assay type: functional, Homo sapiens;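 note: His-tagged ARNT PAS-B domain paired with GST-TACC3 E629A dimer coactivator fragment; potency of inhibitors that break up the complex and lower AlphaScreen signal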

Genome polyprotein, sequence (P29990 2492-3391 limits assumed): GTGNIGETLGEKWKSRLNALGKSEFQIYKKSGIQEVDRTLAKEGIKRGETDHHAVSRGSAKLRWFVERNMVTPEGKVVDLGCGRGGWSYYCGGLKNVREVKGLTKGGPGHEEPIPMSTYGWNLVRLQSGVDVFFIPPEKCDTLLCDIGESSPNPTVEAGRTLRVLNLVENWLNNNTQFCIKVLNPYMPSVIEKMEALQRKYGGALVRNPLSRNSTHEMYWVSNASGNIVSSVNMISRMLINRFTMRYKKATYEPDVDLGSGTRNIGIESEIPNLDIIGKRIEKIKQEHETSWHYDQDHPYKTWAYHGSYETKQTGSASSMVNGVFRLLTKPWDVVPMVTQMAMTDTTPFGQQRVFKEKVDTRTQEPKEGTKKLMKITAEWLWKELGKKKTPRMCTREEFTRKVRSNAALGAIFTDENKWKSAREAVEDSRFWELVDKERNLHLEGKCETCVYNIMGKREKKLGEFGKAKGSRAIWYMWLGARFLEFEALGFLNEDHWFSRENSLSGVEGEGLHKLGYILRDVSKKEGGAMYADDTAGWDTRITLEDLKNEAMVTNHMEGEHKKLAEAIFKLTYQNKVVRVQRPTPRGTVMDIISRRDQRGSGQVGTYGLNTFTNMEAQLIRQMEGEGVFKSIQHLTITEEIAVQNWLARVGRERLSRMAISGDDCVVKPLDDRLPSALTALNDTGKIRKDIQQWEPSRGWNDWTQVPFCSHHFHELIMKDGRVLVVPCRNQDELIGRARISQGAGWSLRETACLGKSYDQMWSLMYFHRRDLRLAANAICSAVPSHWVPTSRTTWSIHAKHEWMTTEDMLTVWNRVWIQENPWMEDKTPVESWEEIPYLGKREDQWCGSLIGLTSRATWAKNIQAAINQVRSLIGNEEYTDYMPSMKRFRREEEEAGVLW

Cc1ccc(-n2c3nc(=O)[nH]c(=O)c-3cc3cc([N+](=O)[O-])ccc32)cc1
IC50 (Genome polyprotein): 22.9 µM (active) | IC50 [1]: > 128 µM (inactive) | CC50 (Vero): > 40 µM (active) | IC50 (Hexokinase HKDC1): 10.3 µM (active)

Cc1cccc(-c2nnc(SCC#N)n2-c2ccccc2)c1
AC50 [2]: 3.22 µM (active)

COc1ccccc1Nc1ccc([N+](=O)[O-])cc1N
IC50 [3]: 8.01 µM (active) | IC50 [4]: 3.2 µM (active) | IC50 [5]: 34.5 µM (inactive)

CC(C)n1c(N2CCN(C(=O)c3cccs3)CC2)nc2ccccc21
AC50 [2]: 10.6 µM (active)

O=C1c2cccc3c([N+](=O)[O-])ccc(c23)C(=O)N1c1ccc(Cl)cn1
EC50 [6]: 0.905 µM (active) | IC50 (cells): 8.7 µM (active) | EC50 [7]: 1.58 µM (active) | CC50 [8]: 10.1 µM (active) | EC50 (Beta-galactosidase): > 40 µM (inactive) | CC50 [9]: 1.34 µM (active) | IC50 [10]: 15.5 µM (active)

O=C(c1ccc(Cl)cc1)N(CCN1CCC(n2c(=O)[nH]c3ccccc32)CC1)C(=O)c1ccc(Cl)cc1
IC50 (Phospholipase D2): 2.7 µM (active) | IC50 (Phospholipase D1): 0.21 µM (active)

CNS(=O)(=O)c1cccc(C(=O)OCC(=O)c2cc3ccccc3o2)c1
EC50 (Beta-galactosidase): > 40 µM (inactive) | IC50 [10]: 15.5 µM (active)

O=C(CSc1ccc2nnc(-c3ccccn3)n2n1)NCc1ccco1
AC50 [11]: 99 µM (active)

O=C(NCCN1CCC2(CC1)C(=O)NCN2c1cccc(Br)c1)c1ccc2ccccc2c1
IC50 (Phospholipase D2): 0.68 µM (active) | IC50 (Phospholipase D1): 4.6 µM (active)

COc1cc(/C=C/C=C2/CC/C(=C/C=C/c3ccc(O)c(OC)c3)C2=O)ccc1O
IC50 [12]: 8.22 µM (active) | IC50 [13]: 99.4 µM (active) | CC50 [14]: 24.1 µM (active)

O=C1C(Cl)=C(Nc2ccc3c[nH]nc3c2)C(=O)c2ccccc21
EC50 [15]: 0.928 µM (active) | AC50 (INS1): 3.56 µM (active) | EC50 (Streptococcus): 15.1 µM (active) | CC50 (Vero): 9.81 µM (active) | CC50 [14]: 2.49 µM (active)

O=C(NCCN1CCC(n2c(=O)[nH]c3ccccc32)CC1)NCc1cccc(F)c1
IC50 (Phospholipase D2): 1.8 µM (active) | IC50 (Phospholipase D1): 0.107 µM (active)

CCOc1ccc(-c2cnc(N)n2C)cc1
AC50 [16]: 93.9 µM (active)
